Assays:
CuZnSOD = CuZnSOD (UniProt P00442); assay: Superoxide dismutase (SOD) spectrophotometric XTT assay, Protocol 1; type: biochemical; settings: xanthine oxidase/XTT, 24° C., 30 minutes, read-out: IC 50/μM (+/− SEM) SOD Inhibition
Protocol: In this reaction, 3′-{1-[(phenylamino)-carbonyl]-3,4-tetrazolium}-bis(4-methoxy-6-nitro)benzenesulfonic acid hydrate (XTT) is converted to a colourimetric product by the action of superoxide ions (produced by xanthine oxidase (XO) and xanthine). Production of superoxide ions is inhibited by SOD resulting in decreased product. The ability of test compounds to inhibit SOD is measured by their ability to restore production of the coloured product. Reactions were performed in a total volume of 0.1 ml of buffer A (42 mM Na2CO3 (pH 9.4), 0.1 mM xanthine (Sigma), 0.1 mM EDTA, 0.026 mM XTT (Sigma)).
The reaction was incubated at 24° C. for 30 minutes and products determined by measuring absorobance at 470 nm. All determinations were made in duplicate/triplicate.
SOD activity was measured in accordance with Protocol 1.
Initial analyses were performed using test compounds at 100 μM.

uterus = settings: rat, in vivo; cited from earlier work
steroid sulphatase = molecular target: T1, steroid sulphatase (Homo sapiens, UniProt P08842); settings: cited from earlier work
T1 sequence (P08842 22-583): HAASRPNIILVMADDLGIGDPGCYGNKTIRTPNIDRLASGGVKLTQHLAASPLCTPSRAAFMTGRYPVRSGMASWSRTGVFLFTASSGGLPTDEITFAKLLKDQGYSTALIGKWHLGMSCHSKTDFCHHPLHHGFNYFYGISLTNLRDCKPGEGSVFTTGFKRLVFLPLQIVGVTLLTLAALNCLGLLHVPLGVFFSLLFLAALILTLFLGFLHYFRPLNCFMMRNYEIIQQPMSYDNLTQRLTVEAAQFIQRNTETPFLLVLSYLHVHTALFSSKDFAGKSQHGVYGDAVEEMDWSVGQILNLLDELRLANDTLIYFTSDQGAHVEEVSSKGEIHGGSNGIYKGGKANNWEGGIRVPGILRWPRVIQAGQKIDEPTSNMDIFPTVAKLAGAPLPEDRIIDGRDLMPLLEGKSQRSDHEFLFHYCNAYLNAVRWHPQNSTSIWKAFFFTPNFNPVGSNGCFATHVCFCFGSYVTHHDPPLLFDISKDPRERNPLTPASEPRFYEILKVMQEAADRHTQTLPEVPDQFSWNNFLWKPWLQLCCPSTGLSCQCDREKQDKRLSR

steroid sulphatase (STS) = molecular target: T2, steroid sulphatase (STS) (Homo sapiens, UniProt P08842); assay: Inhibition of steroid sulphatase activity in placental microsomes, Protocol 4; type: biochemical
T2 sequence (P08842 22-583): T1 sequence (P08842 22-583)
Protocol: Sulphatase-positive human placenta from normal term pregnancies are thoroughly minced with scissors and washed once with cold phosphate buffer (pH 7.4, 50 mM) then resuspended in cold phosphate buffer (5 ml/g tissue). Homogenisation is accomplished with an Ultra-Turrax homogeniser, using three 10 second bursts separated by 2 minute cooling periods in ice. Nuclei and cell debris are removed by centrifuging (4° C.) at 2000 g for 30 minutes and portions (2 ml) of the supernatant are stored at […] The protein concentration of the supernatants is determined by the method of Bradford (Anal. Biochem., 72, 248-254 (1976)).
Incubations (1 ml) are carried out using a protein concentration of […], substrate concentration of […] [6,7-3H]oestrone-3-sulphate (specific activity 60 Ci/mmol from New England Nuclear, Boston, Mass., U.S.A.) and an incubation time of 20 minutes at 37° C. If necessary eight concentrations of compounds are employed: 0 (i.e. control); 0.05 mM; 0.1 mM; 0.2 mM; 0.4 mM; 0.6 mM; 0.8 mM; 1.0 mM. After incubation each sample is cooled and the medium (1 ml) was pipetted into separate tubes containing [14C]oestrone (7×10^3 dpm) (specific activity 97 Ci/mmol from Amersham International Radiochemical Centre, Amersham, U.K.). The mixture is shaken thoroughly for 30 seconds with toluene (5 ml). Experiments have shown that >90% [14C]oestrone and <0.1% [3H]oestrone-3-sulphate is removed from the aqueous phase by this treatment. A portion (2 ml) of the organic phase was removed, evaporated and the 3H and 14C content of the residue determined by scintillation spectrometry. The mass of oestrone-3-sulphate hydrolysed is calculated from the 3H counts obtained (corrected for the volumes of the medium and organic phase used, and for recovery of [14C]oestrone added) and the specific activity of the substrate.
(§1) The STS inhibition provided by the compounds was determined in accordance with the placental microsomes assay of Protocol 4 and a plate assay.

STS = assay: Plate assay, % inhibition; type: biochemical
Protocol: as §1

[1] = tested on: MCF7, CAL51, CAMA1 and ZR-75-1 breast cancer derived cell lines; assay: Cell cycle and apoptosis analysis in breast cancer cell lines; type: cell-based, human
Protocol: MCF7, CAL51, CAMA1 and ZR-75-1 breast cancer derived cell lines were obtained from ATCC (MCF7, CAMA1, ZR-75-1) or from the Dutrillaux laboratory (CAL51) (22) and maintained in Dulbecco's modified Eagle's medium (DMEM) supplemented with 10% (v/v) fetal calf serum and antibiotics.
DNA content was determined by flow cytometric analysis of propidium iodide stained cells and TdT-mediated dUTP-nick end labelling (TUNEL), respectively, as described (20). The proportion of cells in G2/M phase of the cell cycle was calculated as a proportion of cells with […] DNA content. The proportion of cells with <G1 DNA content was calculated as a percentage of total cells.
To determine the proportion of cells in mitosis, drug treated cells were collected by trypsinisation and cytospins prepared. Cells were fixed in ice cold methanol for 5 minutes, air dried and DNA was stained using propidium iodide (PI) (0.1 mg/ml in phosphate buffered saline (PBS) containing 10% (v/v) newborn calf serum and 0.05% (w/v) sodium azide). Cells were analysed by confocal microscopy using a Zeiss Axiovert 100 M microscope equipped with the LSM 510 confocal system (Zeiss, Jena, Germany).
We examined whether the differential sensitivity of breast cancer cell lines to the growth inhibitory effects of the compounds of the present invention.

SMILES	IC50 (CuZnSOD) [µM]	oestrogenicity (uterus)	potency as a steroid sulphatase inhibitor compared with EMATE (steroid sulphatase)	IC50 (steroid sulphatase (STS); placental microsomes) [nM]	inhibition at 1 µM (steroid sulphatase (STS); read-out: Placental Microsomes, % inhibition 1 μM) [%]	Plate Assay, % inhibition 0.1 μM (STS; 0.1 μM) [%]	Plate Assay, % inhibition 1 μM (STS; 1 μM) [%]	Plate Assay, % inhibition 10 μM (STS; 10 μM) [%]	Effect on cell morphology (rounding, detachment) [1]
COc1cc2c(cc1OS(N)(=O)=O)CC[C@@H]1[C@@H]2CC[C@]2(C)C(=O)CC[C@@H]12 [Compound 25, 2-methoxyestrone-3-O-sulphamate]	> 100	devoid of oestrogenicity	equipotent with EMATE						
CSc1cc2c(cc1OS(N)(=O)=O)CCC1C2CC[C@]2(C)C(=O)CCC12 (stereo partly drawn) [Compound 36]				120	86.9	3	53	55	induced cells to become rounded and detached from the plate/flask
